According to ChEMBL document CHEMBL2203078, “Identification of amides as carboxylic Acid surrogates for quinolizidinone-based m1 positive allosteric modulators” (ACS Med Chem Lett, 2012):
pIC50: −log10 of the molar value. Calls of active or inactive are those of the source. No cut-off for these calls is given here.

Tests used:
[1] = Passive permeability across MDCK cells; type: ADME, cell-based, Canis lupus familiaris; conditions: dog
[2] = Protein binding in rat plasma; type: ADME, cell-free; conditions: read-out: PPB (converted)
[3] = molecular target: T1, Muscarinic acetylcholine receptor M2 (Homo sapiens) (UniProt P08172); test: Activity at muscarinic M2 receptor expressing in CHONFAT cells assessed as potentiation of acetylcholine-induced calcium mobilization preincubated for 4 mins and measured 4 mins after acetylcholine stimulation by FLIPR assay; type: functional, cell-based
T1 sequence (whole entry): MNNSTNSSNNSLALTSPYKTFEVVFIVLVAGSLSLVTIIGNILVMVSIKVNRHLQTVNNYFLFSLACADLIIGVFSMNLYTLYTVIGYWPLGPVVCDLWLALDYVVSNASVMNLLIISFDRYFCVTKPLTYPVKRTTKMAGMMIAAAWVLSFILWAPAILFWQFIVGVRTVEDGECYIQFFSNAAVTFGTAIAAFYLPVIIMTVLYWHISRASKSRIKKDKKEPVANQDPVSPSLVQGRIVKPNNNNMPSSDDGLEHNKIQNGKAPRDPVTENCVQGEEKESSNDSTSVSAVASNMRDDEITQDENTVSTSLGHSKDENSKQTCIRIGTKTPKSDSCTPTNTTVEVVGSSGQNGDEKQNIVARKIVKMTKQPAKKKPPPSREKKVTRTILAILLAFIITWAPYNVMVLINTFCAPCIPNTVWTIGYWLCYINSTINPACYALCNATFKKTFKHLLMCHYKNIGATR

MDR1 (P-gp, ABCB1) = MDR1 (P-gp, ABCB1) (Homo sapiens, UniProt P08183); test: in vitro; conditions: not told
MDR1 (P-gp, ABCB1), sequence (P08183 whole entry): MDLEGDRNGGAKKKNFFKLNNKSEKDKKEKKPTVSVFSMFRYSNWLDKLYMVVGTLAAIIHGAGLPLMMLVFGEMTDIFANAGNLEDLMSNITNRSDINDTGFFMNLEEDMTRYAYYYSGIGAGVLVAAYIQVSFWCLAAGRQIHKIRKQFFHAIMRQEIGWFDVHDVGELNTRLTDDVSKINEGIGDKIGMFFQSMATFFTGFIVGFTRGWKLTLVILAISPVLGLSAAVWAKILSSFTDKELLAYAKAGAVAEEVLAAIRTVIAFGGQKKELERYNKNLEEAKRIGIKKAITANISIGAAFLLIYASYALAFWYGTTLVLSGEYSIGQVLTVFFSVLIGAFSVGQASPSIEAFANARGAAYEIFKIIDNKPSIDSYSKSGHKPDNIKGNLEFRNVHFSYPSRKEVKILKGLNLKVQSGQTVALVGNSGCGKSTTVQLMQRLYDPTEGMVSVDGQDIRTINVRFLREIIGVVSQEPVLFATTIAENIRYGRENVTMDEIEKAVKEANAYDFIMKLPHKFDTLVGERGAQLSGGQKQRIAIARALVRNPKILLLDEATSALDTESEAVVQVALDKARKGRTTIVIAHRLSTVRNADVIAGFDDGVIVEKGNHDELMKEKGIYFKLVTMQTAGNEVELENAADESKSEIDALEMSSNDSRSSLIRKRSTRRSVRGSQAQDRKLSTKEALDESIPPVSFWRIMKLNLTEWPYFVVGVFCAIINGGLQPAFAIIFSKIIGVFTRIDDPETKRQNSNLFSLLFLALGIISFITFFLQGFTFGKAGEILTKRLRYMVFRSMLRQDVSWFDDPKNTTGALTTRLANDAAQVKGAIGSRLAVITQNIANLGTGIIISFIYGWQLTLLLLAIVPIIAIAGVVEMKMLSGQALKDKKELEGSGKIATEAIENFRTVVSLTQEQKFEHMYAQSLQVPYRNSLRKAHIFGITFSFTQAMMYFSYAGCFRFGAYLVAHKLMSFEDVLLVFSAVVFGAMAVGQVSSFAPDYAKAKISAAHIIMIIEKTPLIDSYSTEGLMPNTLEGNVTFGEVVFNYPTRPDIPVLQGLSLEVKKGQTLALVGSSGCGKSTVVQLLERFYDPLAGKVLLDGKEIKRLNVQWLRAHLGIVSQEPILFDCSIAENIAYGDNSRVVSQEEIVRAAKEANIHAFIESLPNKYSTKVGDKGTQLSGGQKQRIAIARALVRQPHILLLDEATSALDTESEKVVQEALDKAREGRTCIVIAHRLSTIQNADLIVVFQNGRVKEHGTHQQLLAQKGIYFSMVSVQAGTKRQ
Description: Efflux ratio assessed as human MDR1-mediated directional transport ratio from basolateral to apical over apical to basolateral by cell based assay

[4] = molecular target: T2, Muscarinic acetylcholine receptor M4 (Homo sapiens) (UniProt P08173); test: Activity at muscarinic M4 receptor expressing in CHONFAT cells assessed as potentiation of acetylcholine-induced calcium mobilization preincubated for 4 mins and measured 4 mins after acetylcholine stimulation by FLIPR assay; type: functional, cell-based
T2 sequence (whole entry): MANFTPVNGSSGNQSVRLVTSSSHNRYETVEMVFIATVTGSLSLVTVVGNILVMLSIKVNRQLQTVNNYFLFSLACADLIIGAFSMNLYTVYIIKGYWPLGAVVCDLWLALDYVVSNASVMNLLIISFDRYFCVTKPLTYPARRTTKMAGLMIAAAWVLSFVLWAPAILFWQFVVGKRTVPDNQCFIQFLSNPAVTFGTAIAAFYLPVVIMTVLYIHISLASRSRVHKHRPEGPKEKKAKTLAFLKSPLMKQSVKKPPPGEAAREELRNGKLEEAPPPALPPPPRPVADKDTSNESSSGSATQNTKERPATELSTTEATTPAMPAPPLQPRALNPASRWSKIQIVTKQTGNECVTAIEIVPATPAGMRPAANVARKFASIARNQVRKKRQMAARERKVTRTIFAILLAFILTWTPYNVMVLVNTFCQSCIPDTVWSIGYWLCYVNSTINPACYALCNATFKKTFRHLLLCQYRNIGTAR

[5] = molecular target: T3, Muscarinic acetylcholine receptor M1 (Homo sapiens) (UniProt P11229); test: Positive allosteric modulation of human muscarinic M1 receptor expressing in CHONFAT cells assessed as potentiation of acetylcholine-induced calcium mobilization preincubated for 4 mins and measured 4 mins after acetylcholine stimulation by FLIPR assay; type: functional, cell-based
T3 sequence (whole entry): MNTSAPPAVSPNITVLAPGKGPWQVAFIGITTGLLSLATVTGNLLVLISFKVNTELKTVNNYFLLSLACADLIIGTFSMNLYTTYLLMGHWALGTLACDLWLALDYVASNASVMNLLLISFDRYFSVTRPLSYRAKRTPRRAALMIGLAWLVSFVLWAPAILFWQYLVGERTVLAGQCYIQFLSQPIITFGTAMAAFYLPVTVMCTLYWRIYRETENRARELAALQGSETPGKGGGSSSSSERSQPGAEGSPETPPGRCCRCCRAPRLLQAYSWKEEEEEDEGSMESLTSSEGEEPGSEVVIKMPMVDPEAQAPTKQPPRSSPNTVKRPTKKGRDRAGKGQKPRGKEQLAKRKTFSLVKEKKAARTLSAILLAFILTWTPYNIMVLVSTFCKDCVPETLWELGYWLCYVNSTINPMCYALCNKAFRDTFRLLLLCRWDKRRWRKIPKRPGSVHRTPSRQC

[6] = Protein binding in human plasma; type: ADME, cell-free; conditions: read-out: PPB (converted)
[7] = molecular target: Muscarinic acetylcholine receptor M3 (Homo sapiens) (UniProt P20309); test: Activity at muscarinic M3 receptor expressing in CHONFAT cells assessed as potentiation of acetylcholine-induced calcium mobilization preincubated for 4 mins and measured 4 mins after acetylcholine stimulation by FLIPR assay; type: functional, cell-based
Muscarinic acetylcholine receptor M3 (Homo sapiens), sequence (P20309 whole entry, looked up): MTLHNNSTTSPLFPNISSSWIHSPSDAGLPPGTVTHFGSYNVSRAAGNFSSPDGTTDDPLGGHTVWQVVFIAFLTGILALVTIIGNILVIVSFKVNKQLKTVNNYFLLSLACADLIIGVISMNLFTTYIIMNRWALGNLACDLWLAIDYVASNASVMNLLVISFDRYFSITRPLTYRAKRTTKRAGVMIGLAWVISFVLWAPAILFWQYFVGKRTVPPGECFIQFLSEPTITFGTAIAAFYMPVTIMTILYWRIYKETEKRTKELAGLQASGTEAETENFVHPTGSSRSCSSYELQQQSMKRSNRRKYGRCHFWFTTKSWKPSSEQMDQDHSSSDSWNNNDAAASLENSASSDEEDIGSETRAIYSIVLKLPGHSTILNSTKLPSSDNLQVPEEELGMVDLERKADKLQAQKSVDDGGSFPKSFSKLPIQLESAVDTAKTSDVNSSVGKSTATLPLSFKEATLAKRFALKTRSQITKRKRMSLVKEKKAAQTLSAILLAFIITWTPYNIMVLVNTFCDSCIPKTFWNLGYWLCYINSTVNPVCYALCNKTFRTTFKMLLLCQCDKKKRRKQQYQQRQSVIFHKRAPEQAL

MDR1a (P-gp, ABCB1) = MDR1a (P-gp, ABCB1) (Rattus norvegicus, UniProt P43245); test: in vitro; conditions: not told
MDR1a (P-gp, ABCB1), sequence (P43245 whole entry): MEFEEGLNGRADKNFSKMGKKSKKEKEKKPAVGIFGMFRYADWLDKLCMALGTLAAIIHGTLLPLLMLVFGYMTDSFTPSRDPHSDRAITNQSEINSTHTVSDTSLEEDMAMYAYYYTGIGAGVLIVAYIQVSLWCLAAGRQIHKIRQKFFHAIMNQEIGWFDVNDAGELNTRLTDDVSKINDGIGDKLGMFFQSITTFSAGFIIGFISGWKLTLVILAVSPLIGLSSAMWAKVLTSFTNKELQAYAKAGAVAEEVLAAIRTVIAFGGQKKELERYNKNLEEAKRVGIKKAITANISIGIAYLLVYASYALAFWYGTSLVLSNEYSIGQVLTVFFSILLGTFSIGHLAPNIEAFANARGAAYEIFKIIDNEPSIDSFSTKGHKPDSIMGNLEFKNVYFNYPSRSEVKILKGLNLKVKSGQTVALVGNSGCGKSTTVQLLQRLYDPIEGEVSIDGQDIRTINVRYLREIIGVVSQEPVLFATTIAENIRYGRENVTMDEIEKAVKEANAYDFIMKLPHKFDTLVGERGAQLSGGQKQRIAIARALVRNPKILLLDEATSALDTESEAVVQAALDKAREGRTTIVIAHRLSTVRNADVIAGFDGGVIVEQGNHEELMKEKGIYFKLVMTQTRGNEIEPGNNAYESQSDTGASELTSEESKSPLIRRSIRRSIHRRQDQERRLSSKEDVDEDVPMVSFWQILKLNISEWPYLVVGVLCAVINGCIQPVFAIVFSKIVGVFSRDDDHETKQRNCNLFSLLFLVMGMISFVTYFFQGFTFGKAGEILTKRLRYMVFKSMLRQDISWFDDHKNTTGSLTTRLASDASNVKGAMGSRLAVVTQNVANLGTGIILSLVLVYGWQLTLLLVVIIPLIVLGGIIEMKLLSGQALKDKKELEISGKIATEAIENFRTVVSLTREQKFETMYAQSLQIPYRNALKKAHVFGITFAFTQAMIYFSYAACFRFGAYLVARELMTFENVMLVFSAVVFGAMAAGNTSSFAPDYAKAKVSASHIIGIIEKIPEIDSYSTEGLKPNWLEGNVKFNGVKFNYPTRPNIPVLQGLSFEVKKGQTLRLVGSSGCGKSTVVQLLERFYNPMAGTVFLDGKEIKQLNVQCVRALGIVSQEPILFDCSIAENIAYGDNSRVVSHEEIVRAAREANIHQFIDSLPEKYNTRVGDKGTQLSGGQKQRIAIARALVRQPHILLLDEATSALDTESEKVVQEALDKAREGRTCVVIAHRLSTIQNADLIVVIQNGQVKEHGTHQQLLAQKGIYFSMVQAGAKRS
Description: Efflux ratio assessed as rat MDR1a-mediated directional transport ratio from basolateral to apical over apical to basolateral by cell based assay

[8] = Ratio of drug level in brain to plasma of Sprague-Dawley rat at 10 mg/kg, po after 2 hrs; type: ADME, organism-based; parameters: dose 10 mg/kg, route oral; conditions: read-out: BPR
[9] = Drug concentration in Sprague-Dawley rat brain at 10 mg/kg, po after 2 hrs; type: ADME, organism-based; parameters: dose 10 mg/kg, route oral; conditions: read-out: Drug uptake
[10] = Drug concentration in Sprague-Dawley rat CSF at 10 mg/kg, po after 2 hrs; type: ADME, organism-based, Cerebrospinal fluid; parameters: dose 10 mg/kg, route oral; conditions: read-out: Drug uptake
[11] = Plasma concentration in Sprague-Dawley rat at 10 mg/kg, po after 2 hrs; type: ADME, organism-based; parameters: dose 10 mg/kg, route oral
Rattus norvegicus = test: Ratio of drug level in CSF to unbound drug level in plasma of Sprague-Dawley rat at 10 mg/kg, po after 2 hrs; conditions: in vivo
[12] = molecular target: Voltage-gated inwardly rectifying potassium channel KCNH2 (Homo sapiens, UniProt Q12809); test: Binding affinity to human ERG
Voltage-gated inwardly rectifying potassium channel KCNH2, sequence (Q12809 whole entry): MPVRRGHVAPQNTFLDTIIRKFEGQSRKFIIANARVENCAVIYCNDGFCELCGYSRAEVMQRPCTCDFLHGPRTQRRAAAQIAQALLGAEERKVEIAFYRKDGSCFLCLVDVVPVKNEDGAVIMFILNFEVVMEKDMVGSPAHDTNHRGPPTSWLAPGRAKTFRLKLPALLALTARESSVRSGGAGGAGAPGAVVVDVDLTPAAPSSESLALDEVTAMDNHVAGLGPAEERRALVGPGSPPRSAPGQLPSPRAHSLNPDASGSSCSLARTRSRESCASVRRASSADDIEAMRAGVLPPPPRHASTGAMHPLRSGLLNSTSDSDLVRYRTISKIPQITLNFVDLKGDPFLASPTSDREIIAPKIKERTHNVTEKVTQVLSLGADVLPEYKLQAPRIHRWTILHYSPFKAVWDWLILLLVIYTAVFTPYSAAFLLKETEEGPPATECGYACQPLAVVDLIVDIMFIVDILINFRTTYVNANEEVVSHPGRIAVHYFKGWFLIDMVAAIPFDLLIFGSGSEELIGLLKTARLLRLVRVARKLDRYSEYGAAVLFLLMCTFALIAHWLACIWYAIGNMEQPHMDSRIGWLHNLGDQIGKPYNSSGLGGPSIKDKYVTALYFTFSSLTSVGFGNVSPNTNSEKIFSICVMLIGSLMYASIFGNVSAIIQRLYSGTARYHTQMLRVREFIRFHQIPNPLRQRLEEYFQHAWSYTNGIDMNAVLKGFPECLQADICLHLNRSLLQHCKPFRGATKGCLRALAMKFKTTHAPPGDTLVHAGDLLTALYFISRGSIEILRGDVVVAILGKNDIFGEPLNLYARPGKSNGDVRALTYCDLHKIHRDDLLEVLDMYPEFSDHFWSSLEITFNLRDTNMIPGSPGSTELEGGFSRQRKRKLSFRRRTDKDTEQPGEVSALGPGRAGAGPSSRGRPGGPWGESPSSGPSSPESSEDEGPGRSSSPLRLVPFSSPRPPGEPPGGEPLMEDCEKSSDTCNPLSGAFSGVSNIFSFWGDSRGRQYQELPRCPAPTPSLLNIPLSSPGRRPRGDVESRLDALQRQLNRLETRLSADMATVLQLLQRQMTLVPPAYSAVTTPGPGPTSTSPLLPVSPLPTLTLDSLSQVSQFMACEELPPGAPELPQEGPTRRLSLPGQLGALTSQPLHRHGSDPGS

Mus musculus [13] = species: Mus musculus; test: Inhibition of scopolamine-induced memory deficit in mouse measured at plasma concentration of 1 uM after 24 hrs by contexual fear conditioning assay; type: functional, organism-based
Mus musculus [14] = species: Mus musculus; test: Inhibition of scopolamine-induced memory deficit in mouse measured at plasma concentration of 2.5 uM after 24 hrs by contexual fear conditioning assay; type: functional, organism-based
[15] = Fraction unbound in human plasma; type: ADME, cell-free
Mus musculus [16] = test: Inhibition of scopolamine-induced memory deficit in mouse pretreated with 10 to 30 mg/kg, ip after 24 hrs by contexual fear conditioning assay; type: functional, organism-based
[17] = molecular target: T3, Muscarinic acetylcholine receptor M1 (Homo sapiens); test: Positive allosteric modulation of human muscarinic M1 receptor expressing in CHONFAT cells assessed as potentiation of acetylcholine-induced calcium mobilization at 34 uM preincubated for 4 mins and measured 4 mins after acetylcholine stimulation by FLIPR assay relative to untreated control; type: functional, cell-based
[18] = Fraction unbound in rat plasma; type: ADME, cell-free
Plasma = test: Plasma concentration in mouse scopolamine-induced memory deficit model at 10 mg/kg, ip; type: ADME, organism-based; parameters: dose 10 mg/kg, route intraperitoneal; conditions: in vivo

Compound | Papp [1] [×10⁻⁶ cm/s] | fraction unbound [2] | Activity [3] | efflux ratio (MDR1 (P-gp, ABCB1)) | Activity [4] | IP [5] [nM] | fraction unbound [6] | Activity [7] | efflux ratio (MDR1a (P-gp, ABCB1)) | concentration at 2 h [11] [nM] | further results
O=C(N[C@H]1CCCC[C@@H]1O)c1cc(CN2CCN(c3cc4scnc4cn3)CC2)c2ccccn2c1=O | 37 | 0.051 | inactive |  | inactive | 22 | 0.082 | inactive |  | 375 | Kp at 2 h [8]: 0.19; concentration at 2 h [9]: 77 nM; concentration at 2 h [10]: 4 nM
C[C@@]1(NC(=O)c2cc(CN3CCC(C#N)(c4ccccn4)CC3)c3ccccn3c2=O)CCCC[C@H]1O | 28 |  | inactive | 10 | inactive | > 20000 |  | inactive | 12 |  | 
Cc1ccc(N2CCN(Cc3cc(C(=O)N[C@H]4CCCC[C@@H]4O)c(=O)n4ccccc34)CC2)nc1 | 23 | 0.287 | inactive |  | inactive | 174 | 0.399 | inactive |  |  | 
N#CC1(c2ccccn2)CCN(Cc2cc(C(=O)O)c(=O)n3ccccc23)CC1 [MSD-M1PAM] | 18 | 0.318 |  | 0.5 |  |  | 0.291 |  | 1.4 | 1480 | inhibition (Mus musculus [13]): Active; Ratio (Rattus norvegicus): 0.3
N#Cc1ccc(N2CCN(Cc3cc(C(=O)N[C@H]4CCCC[C@@H]4O)c(=O)n4ccccc34)CC2)cc1 | 30 | 0.061 | inactive | 1.1 | inactive | 244 | 0.095 | inactive | 4.7 |  | pIC50 [12]: 6.41
O=C(N[C@H]1CCCC[C@@H]1O)c1cc(CN2CCN(c3cc4ccccc4cn3)CC2)c2ccccn2c1=O | 29 | 0.032 | inactive |  | inactive | 110 | 0.087 | inactive |  |  | inhibition (Mus musculus [14]): Active
N#CC1(c2ccccn2)CCN(Cc2cc(C(=O)NC3CCOCC3)c(=O)n3ccccc23)CC1 | 33 | 0.268 | inactive | 2.4 | inactive | 338 | 0.49 | inactive | 7.5 | 2650 | fraction unbound [15]: 0.49; Kp at 2 h [8]: 0.21; inhibition (Mus musculus [16]): Active; fold change (FC) [17]: 52; concentration at 2 h [9]: 559 nM; concentration at 2 h [10]: 215 nM; fraction unbound [18]: 0.27; Ratio (Rattus norvegicus): 0.3; concentration (Plasma): 2400 nM
Cc1ccccc1NC(=O)c1cc(CN2CCC(C#N)(c3ccccn3)CC2)c2ccccn2c1=O |  |  | inactive |  | inactive | 2400 |  | inactive |  |  | 
Cc1cccc2c1N(C(=O)c1cc(CN3CCC(C#N)(c4ccccn4)CC3)c3ccccn3c1=O)CCC2 |  |  | inactive |  | inactive | 4400 |  | inactive |  |  | 

The next lines start with results.

Papp [1] [×10⁻⁶ cm/s] | fraction unbound [2] | Activity [3] | efflux ratio (MDR1 (P-gp, ABCB1)) | Activity [4] | IP [5] [nM] | fraction unbound [6] | Activity [7] | efflux ratio (MDR1a (P-gp, ABCB1)) | concentration at 2 h [11] [nM] | Compound | further results
28 | 0.044 | inactive | 1.6 | inactive | 253 | 0.066 | inactive | 2 |  | N#CC1(c2ccccn2)CCN(Cc2cc(C(=O)NC3CCCCC3)c(=O)n3ccccc23)CC1 | 
29 | 0.04 | inactive | 1.7 | inactive | 205 | 0.105 | inactive | 3.4 |  | N#CC1(c2ccccn2)CCN(Cc2cc(C(=O)NC3CCCCC3(F)F)c(=O)n3ccccc23)CC1 (stereo unspecified) | 
32 | 0.031 | inactive | 2.3 | inactive | 45 | 0.148 | inactive | 3.3 | 1610 | N#CC1(c2ccccc2)CCN(Cc2cc(C(=O)N[C@H]3CCCC[C@@H]3O)c(=O)n3ccccc23)CC1 | Kp at 2 h [8]: 0.52; concentration at 2 h [9]: 896 nM; concentration at 2 h [10]: 29 nM; Ratio (Rattus norvegicus): 0.58; pIC50 [12]: 5.29
29 | 0.14 | inactive |  | inactive | 31 | 0.48 | inactive |  |  | N#CC1(c2ccccn2)CCN(Cc2cc(C(=O)N[C@H]3CCCC[C@@H]3O)c(=O)n3ccccc23)CC1 | 
26 | 0.073 | inactive | 1.9 | inactive | 147 | 0.185 | inactive | 3.4 | 1120 | N#CC1(c2ccccn2)CCN(Cc2cc(C(=O)N[C@H]3CCCC[C@@H]3F)c(=O)n3ccccc23)CC1 | Kp at 2 h [8]: 0.28; concentration at 2 h [9]: 280 nM; concentration at 2 h [10]: 27 nM; Ratio (Rattus norvegicus): 0.33
 |  | inactive |  | inactive | 220 |  | inactive |  |  | N#CC1(c2ccccn2)CCN(Cc2cc(C(=O)N[C@@H]3CCCC[C@H]3O)c(=O)n3ccccc23)CC1 | 
